The text below walks through data of PubChem BioAssay (NCI).

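Cultured in 96-well plates, cells were exposed to test compound for 48 hours across five concentrations. TGI denotes the concentration required for complete inhibition of growth.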 Where a SMILES comes first, the peptide text is derived from it. [ ]: non-standard residue; d: D form. The star is where a group is joined. Bn2Val = CC(C)[C@@H](C(=O)*)N(Cc1ccccc1)Cc1ccccc1; NH(3,4-diMeO-benzyl) = COc1ccc(CN*)cc1OC; NMeV = CN[C@H](C(=O)O)C(C)C

Among the test systems are ACHN renal; MDA-MB-231 breast; 786-0 renal; SK-MEL-28 melanoma.
What all share (assay): NCI anticancer screen, dose series, 48 h

As for `COc1ccc(N=CN(C)C)c(C)c1`, the TGI was 66.3 µM in the test on ACHN renal, 58 µM in the test on MDA-MB-231 breast, > 100 µM in the test with 786-0 renal and 85.6 µM in the test on SK-MEL-28 melanoma.
For `O=C(OCc1ccccc1)N1CCCc2c(n(S(=O)(=O)c3ccccc3)c3ccccc23)C1`, the TGI in the test on ACHN renal, with MDA-MB-231 breast, in the test on 786-0 renal and with SK-MEL-28 melanoma was > 100 µM in each case.
On to `O=Nc1c(NO)ccc2nn(-c3ccccc3)nc12`, for which the TGI was 47.7 µM with ACHN renal, > 100 µM in the test with MDA-MB-231 breast, > 100 µM in the test with 786-0 renal and 43.3 µM in the test with SK-MEL-28 melanoma.
Turning to `CC1(O)Oc2ccc3ccccc3c2C=C1C(N)=O` (stereo unspecified), the TGI is > 100 µM in the test with ACHN renal, 93.8 µM in the test with MDA-MB-231 breast, > 100 µM in the test on 786-0 renal and > 100 µM in the test on SK-MEL-28 melanoma.
Turning to `O=C(c1cccs1)N(Cc1cccnc1)C(=S)N(Cc1cccnc1)C(=O)c1cccs1`, the TGI with ACHN renal is > 100 µM; in the test on MDA-MB-231 breast, > 100 µM; in the test on 786-0 renal it was 34.3 µM; in the test on SK-MEL-28 melanoma it was > 100 µM.
As for `C=CCC1C(=O)Nc2cccc3ncn(c23)C1=O` (stereo unspecified), the TGI in the test on ACHN renal, in the test on MDA-MB-231 breast, with 786-0 renal and in the test on SK-MEL-28 melanoma was > 100 µM throughout.
In the case of `CC[C@H]1C=CCC[C@@]2(C[C@@H]3CC[C@H]4[C@H](C(=O)OCCCCCCCCCCCCCCCC(=O)N(CCCN)C[C@@H](O)CCN)[C@]5(CCC[C@@H](C)O5)NC(=[N+]34)N2)O1`, the TGI with ACHN renal amounted to 1.84 µM; in the test on 786-0 renal, 1.86 µM; in the test on SK-MEL-28 melanoma it was 3.98 µM.
Regarding `NC(=O)OCc1c(-c2ccccc2)nn(-c2ccccc2)c1COC(N)=O`, the TGI in the test on MDA-MB-231 breast, in the test with 786-0 renal and in the test with SK-MEL-28 melanoma was > 100 µM each time.
Turning to `Cn1c(=O)n2n(c1=O)[C@@H](c1ccccc1)[C@H]2c1ccccc1`, the TGI with ACHN renal, with MDA-MB-231 breast, with 786-0 renal and in the test on SK-MEL-28 melanoma was > 100 µM in each case.
Take `CC(C)NC(=O)OCc1c(COC(=O)NC(C)C)c(-c2ccc[n+](COC(=O)C(C)(C)C)c2)n2c1CCC2`: the TGI in the test with ACHN renal, with MDA-MB-231 breast, with 786-0 renal and in the test on SK-MEL-28 melanoma was > 100 µM throughout.
In the case of `COC(=O)c1ccc(NCC2=CC(=O)C=CC2=O)cc1`, the TGI turned out to be 27 µM in the test with ACHN renal, 30.7 µM in the test with MDA-MB-231 breast, 7.86 µM with 786-0 renal and 30.2 µM in the test with SK-MEL-28 melanoma.
With `CCOP(=O)(OCC)C(Nc1ccc(C(=O)O)cc1)c1ccc(C(Nc2ccc(C(=O)O)cc2)P(=O)(OCC)OCC)cc1` (stereo unspecified), the TGI in the test on ACHN renal, in the test on MDA-MB-231 breast, in the test on 786-0 renal and with SK-MEL-28 melanoma was > 100 µM each time.
Regarding `Cc1ccc(C2SCC(=O)N2NC(=O)c2ccncc2)s1` (stereo unspecified), the TGI with ACHN renal, in the test on MDA-MB-231 breast, with 786-0 renal and with SK-MEL-28 melanoma was > 100 µM in each case.
Take `Cc1nnc2n1N=C(c1cc(F)c(Cl)cc1Cl)/C(=C/c1ccc3c(c1)OCO3)S2`: the TGI in the test on ACHN renal, with MDA-MB-231 breast, with 786-0 renal and in the test with SK-MEL-28 melanoma was > 100 µM throughout.
As for `CCn1c2ccccc2c2cc(NC(=O)c3c(NCCNCCO)nc(=O)[nH]c3C)ccc21`, the TGI with ACHN renal, in the test with MDA-MB-231 breast, with 786-0 renal and in the test with SK-MEL-28 melanoma was > 100 µM throughout.
Consider `O=c1cc(-c2cccc(OCc3ccccc3)c2)[nH]c2cc3c(cc12)OCO3`, for which the TGI in the test with ACHN renal is 64.3 µM; with MDA-MB-231 breast it was 9.03 µM; in the test on 786-0 renal, 3.98 µM; with SK-MEL-28 melanoma, > 100 µM.
The matching figures for `COc1ccc(CNC(=O)[C@@H]2CCCN2C(=O)[C@@H]2CCCN2C(=O)[C@H](C(C)C)N(C)C(=O)[C@@H](NC(=O)[C@H](C(C)C)N(Cc2ccccc2)Cc2ccccc2)C(C)C)cc1OC` (Bn2Val-V[NMeV]PP-{NH(3,4-diMeO-benzyl)}): 28 µM, 42.3 µM, 26.5 µM and 38.5 µM.
The matching figures for `N#CC1(C#N)C(c2ccccc2)C=CC(c2ccc([N+](=O)[O-])cc2)C1(C#N)C#N` (stereo unspecified): 9.54 µM, 28.1 µM, 7.71 µM and 35.5 µM.
On to `COc1ccc(-n2sc3ncc([N+](=O)[O-])cc3c2=O)cc1`, for which the TGI in the test with ACHN renal, in the test with MDA-MB-231 breast, in the test with 786-0 renal and in the test with SK-MEL-28 melanoma was > 100 µM in each case.
For `CCc1ccccc1NC(=O)C(=O)CC(=O)c1sc(Nc2ccccc2Cl)nc1C`, the TGI in the test on ACHN renal is > 100 µM; in the test with MDA-MB-231 breast, > 100 µM; with 786-0 renal, 90.9 µM; in the test with SK-MEL-28 melanoma, > 100 µM.
`CCOC(=O)c1ccc(N=c2oc3ccc(OC)cc3cc2-c2nc3ccccc3[nH]2)cc1`: the TGI with ACHN renal, in the test on MDA-MB-231 breast, with 786-0 renal and in the test with SK-MEL-28 melanoma was > 100 µM throughout.
With `COC(=O)[C@H](COC(=O)/C=C/c1ccc(OC(C)=O)c(OC(C)=O)c1)NC(=O)/C=C/c1ccc(OC(C)=O)c(OC(C)=O)c1`, the TGI in the test with ACHN renal worked out at 42.2 µM; in the test with MDA-MB-231 breast, 36.8 µM; with 786-0 renal, 32.1 µM; in the test on SK-MEL-28 melanoma it was 94 µM.
As to `CN1CCc2cc(N)cc3c2C1Cc1ccc2c(c1-3)OCO2` (stereo unspecified), the TGI in the test with ACHN renal was > 75.5 µM; in the test with MDA-MB-231 breast, > 100 µM; in the test with 786-0 renal, 99 µM; in the test with SK-MEL-28 melanoma, > 100 µM.
For the compound `COc1ccc(C2=NN(C(=O)c3cccnc3)C(O)(c3cc(F)c(Cl)cc3Cl)C2)cc1OC` (stereo unspecified), the TGI stood at 57.9 µM in the test with ACHN renal, 37.9 µM with MDA-MB-231 breast, 62.2 µM in the test on 786-0 renal and 54.4 µM in the test on SK-MEL-28 melanoma.
On to `COC(=O)[C@@H]1OC(C)(c2ccccc2)O[C@H]1C(=O)OC`, for which the TGI with ACHN renal, in the test on MDA-MB-231 breast, with 786-0 renal and in the test on SK-MEL-28 melanoma was > 100 µM each time.
As to `c1cc(C[S+]2CCCC2)sc1C[S+]1CCCC1`, the TGI in the test with ACHN renal, with MDA-MB-231 breast and with 786-0 renal was > 100 µM each time.
